Test results reported in ChEMBL document CHEMBL1152060, “Pentamidine congeners 1: Synthesis of Cis- and Trans-butamidine analogues as anti-Pneumocystis carinii pneumonia agents” (1993).

Key:
Rattus norvegicus [1] = assay: Anti-Pneumocystis carinii Pneumonia activity at intravenous dosage of 10.0 mg/kg/day in rat; type: functional
Rattus norvegicus [2] = assay: In vivo toxicity […] at intravenous dosage of 10.0 mg/kg/day in rat; type: functional

SMILES | Control (Rattus norvegicus [1]) [%] | Toxicity (Rattus norvegicus [2])
C(=C/COc1ccc(C2=NCCN2)cc1)/COc1ccc(C2=NCCN2)cc1 | 1.4 | 0
N=C(N)c1ccc(OC/C=C\COc2ccc(C(=N)N)cc2)cc1 | 1.3 | 0
N=C(N)c1ccc(OCCCCCOc2ccc(C(=N)N)cc2)cc1 [PENTAMIDINE] | 4.5 | 2
N=C(N)c1ccc(OC/C=C/COc2ccc(C(=N)N)cc2)cc1 | 0.8 | 0
C(=C\COc1ccc(C2=NCCN2)cc1)/COc1ccc(C2=NCCN2)cc1 | 1.5 | 0
